How the values were obtained:
Assay in all cases: relative viability (nuclei count vs DMSO), 5 days (fraction); higher = more cells survive
HCC-78 = tested on: HCC-78
Summary of the method: (§1)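 Values are medians from duplicate plates. Each reflects relative viability, defined as the nuclei count of treated wells over that of vehicle wells. Lung cancer cell lines in 1536-well plates were pin-tool dosed one day after seeding with one drug alone or with a fixed anchor-drug dose plus five library-drug doses (not always all listed) in √10 steps, then fixed, stained and imaged at 4× after 5 days.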

RERF-LC-KJ = tested on: RERF-LC-KJ
Summary of the method: as §1

NCI-H23 = tested on: NCI-H23
Summary of the method: as §1

201T = tested on: 201T
Summary of the method: as §1

NCI-H1666 = tested on: NCI-H1666
Summary of the method: as §1

NCI-H1915 = tested on: NCI-H1915
Summary of the method: as §1

NCI-H2347 = tested on: NCI-H2347
Summary of the method: as §1

NCI-H661 = tested on: NCI-H661
Summary of the method: as §1

LC-2-ad = tested on: LC-2-ad
Summary of the method: as §1

NCI-H650 = tested on: NCI-H650
Summary of the method: as §1

EPLC-272H = tested on: EPLC-272H
Summary of the method: as §1

## C=C1C(=O)O[C@@H](CCCCCCCC)[C@@H]1C(=O)O [C-75] + C[C@]1(O)C[C@@H](c2nc(-c3ccc4ccc(-c5ccccc5)nc4c3)c3c(N)nccn32)C1 [Linsitinib] (partner 1 µM)
HCC-78; first compound 0.08 µM
  relative viability: 0.642
HCC-78; first compound 0.253 µM
  relative viability: 0.443
HCC-78; first compound 0.8 µM
  relative viability: 0.493
HCC-78; first compound 2.53 µM
  relative viability: 0.437
HCC-78; first compound 8 µM
  relative viability: 0.522
RERF-LC-KJ; first compound 0.08 µM
  relative viability: 0.912
RERF-LC-KJ; first compound 0.253 µM
  relative viability: 0.994
RERF-LC-KJ; first compound 0.8 µM
  relative viability: 0.827
RERF-LC-KJ; first compound 2.53 µM
  relative viability: 0.739
RERF-LC-KJ; first compound 8 µM
  relative viability: 0.971
NCI-H23; first compound 0.08 µM
  relative viability: 0.541
NCI-H23; first compound 0.253 µM
  relative viability: 0.784
NCI-H23; first compound 0.8 µM
  relative viability: 0.506
NCI-H23; first compound 2.53 µM
  relative viability: 0.557
NCI-H23; first compound 8 µM
  relative viability: 0.561
201T; first compound 0.08 µM
  relative viability: 1.01
201T; first compound 0.253 µM
  relative viability: 1.06
201T; first compound 0.8 µM
  relative viability: 1.1
201T; first compound 2.53 µM
  relative viability: 1.02
201T; first compound 8 µM
  relative viability: 1.1
NCI-H1666; first compound 0.08 µM
  relative viability: 0.79
NCI-H1666; first compound 0.253 µM
  relative viability: 1.01
NCI-H1666; first compound 0.8 µM
  relative viability: 0.816
NCI-H1666; first compound 2.53 µM
  relative viability: 0.858
NCI-H1666; first compound 8 µM
  relative viability: 0.644
NCI-H1915; first compound 0.08 µM
  relative viability: 1.2
NCI-H1915; first compound 0.253 µM
  relative viability: 1.17
NCI-H1915; first compound 0.8 µM
  relative viability: 0.993
NCI-H1915; first compound 2.53 µM
  relative viability: 1.05
NCI-H1915; first compound 8 µM
  relative viability: 1.07
NCI-H2347; first compound 0.08 µM
  relative viability: 1.01
NCI-H2347; first compound 0.253 µM
  relative viability: 0.959
NCI-H2347; first compound 0.8 µM
  relative viability: 0.598
NCI-H2347; first compound 2.53 µM
  relative viability: 0.88
NCI-H2347; first compound 8 µM
  relative viability: 1.07
NCI-H661; first compound 0.08 µM
  relative viability: 0.504
NCI-H661; first compound 0.253 µM
  relative viability: 0.571
NCI-H661; first compound 0.8 µM
  relative viability: 0.461
NCI-H661; first compound 2.53 µM
  relative viability: 0.491
NCI-H661; first compound 8 µM
  relative viability: 0.457
LC-2-ad; first compound 0.08 µM
  relative viability: 0.869
LC-2-ad; first compound 0.253 µM
  relative viability: 0.865
LC-2-ad; first compound 0.8 µM
  relative viability: 0.798
LC-2-ad; first compound 8 µM
  relative viability: 0.855
NCI-H650; first compound 0.08 µM
  relative viability: 0.922
NCI-H650; first compound 0.253 µM
  relative viability: 0.801
NCI-H650; first compound 0.8 µM
  relative viability: 0.608
NCI-H650; first compound 2.53 µM
  relative viability: 0.718
NCI-H650; first compound 8 µM
  relative viability: 0.766
EPLC-272H; first compound 0.08 µM
  relative viability: 1.05
EPLC-272H; first compound 0.253 µM
  relative viability: 1.23
EPLC-272H; first compound 0.8 µM
  relative viability: 1.07
EPLC-272H; first compound 2.53 µM
  relative viability: 0.976
EPLC-272H; first compound 8 µM
  relative viability: 1.11
